This passage reports IC50 results from patent US11787812B2, “Substituted pyrazolo[4,3-d]pyrimidines and imidazo[5,1 -f][1,2,4]triazines as androgen receptor and phosphodiesterase dual inhibitors” (ILDONG PHARMACEUTICAL CO., LTD., priority 2020, dated 2023).

Where two headings read alike, the source gives them in different places.

The target of one assay is human PDE-5A1 (Homo sapiens (Human), UniProt O76074). Description: Human PDE-5A1 inhibition assay (fluorescence polarization, FAM-cGMP). In kind it is biochemical. The settings on record: human PDE5A1, 100 nM FAM-cGMP, 60 minutes room temperature. The text has this: This example illustrates the in vitro inhibition of human PDE-5A1 by exemplary compounds of this disclosure (e.g., as described herein).
Sildenafil citrate (Catalog no. LKT-S3313, Axxora, San Diego, CA), Vardenafil hydrochloride trihydrate (Catalog no. SML2103, Sigma-Aldrich, St. Louis, MO), PDE Assay Buffer (Catalog no. 60393, BPS bioscience, San Diego, CA), PDE Binding Agent (Catalog no. 60390, BPS bioscience, San Diego, CA) and PDE Binding Agent Diluent (cGMP, Catalog no. 60392, BPS bioscience, San Diego, CA) were used for assays. Test compounds were supplied by Ildong Pharmaceuticals Co., Ltd.
The serial dilution of the compounds was first performed in 100% DMSO with the highest concentration at 1 mM and 0.1 mM. Each intermediate compound dilution (in 100% DMSO) will then get directly diluted 10× fold into assay buffer for 10% DMSO and 5 μL of the dilution was added to a 50 μL reaction so that the final concentration of DMSO is 1% in all reactions.
The enzymatic reactions were conducted at room temperature for 60 minutes in a 50 μL mixture containing PDE assay buffer, 100 nM FAM-cGMP, a PDE enzyme (Table 2) and the test compounds.
After enzymatic reaction, 100 μL of a binding solution (1:100 dilution of the binding agent with the binding agent diluent) was added to each reaction and the reaction was performed at room temperature for 60 minutes.
Fluorescence intensity was measured at excitation of 485 nm and an emission of 528 nm using a Tecan Infinite M1000 microplate reader.
PDE activity assays were performed in duplicate at each concentration. Fluorescence intensity is converted to fluorescence polarization using the Tecan Magellan6 software. The fluorescence polarization (FPt) in absence of the compound in each data set was defined as 100% activity. In the absence of PDE and the compound, the value fluorescent polarization (FPb) in each data set was defined as 0% activity. The percent activity in the presence of compound was calculated according to Equation 1:
[formula] where FP=the fluorescence polarization in the presence of the compound.
The values of % activity versus a series of compound concentrations were then plotted using non-linear regression analysis of Sigmoidal dose-response curve generated with Equation 2:
[formula] where Y=percent activity, B=minimum percent activity, T=maximum percent activity, X=logarithm of compound, and Hill Slope=slope factor or Hill coefficient. The IC50 value was determined by the concentration causing a half-maximal percent activity. Results
For orientation: Polarisation of emitted light reports the rotation of a fluorescent probe.

A further assay concerns the target androgen receptor (AR) (Homo sapiens (Human), UniProt P10275). Description: Androgen receptor (AR) reporter assay, antagonist screen activated by R1881. Format: cell-based. To be noted: AR-UAS-bla GripTite 293 cells, antagonist mode, R1881 at EC80. The protocol:
The protocols and results of this Example were carried out and obtained by Thermofisher Scientific.
Test compounds were received at 1000× (or greater) of the desired starting concentration in 100% DMSO. If compounds were supplied at greater that 1000× concentration, an initial dilution is made in 100% DMSO to bring the compounds to 1000× concentration. The 1000× test compounds were serially diluted (10 point ½-log increments) in 100% DMSO.
The Substrate Loading Solution consists of three Life Technologies reagents: Solution A (10 mM LiveBLAzer™-FRET B/G Substrate), Solution B and Solution C.
Androgen Receptor (AR)—Antagonist Screen, Activated by R1881
AR-UAS-bla GripTite™ 293 cells were thawed and resuspended in Assay Media (DMEM phenol red free, 2% CD-treated FBS, 0.1 mM NEAA, 1 mM Sodium Pyruvate, 100 U/mL/100 μg/mL Pen/Strep) to a concentration of 312,500 cells/mL. 4 μL of a 10× serial dilution of Cyproterone Acetate (control antagonist starting concentration, 3,160 nM) or compounds are added to appropriate wells of a Poly-D-Lysine assay plate. 32 μL of cell suspension was added to the wells and pre-incubated at 37° C./5% CO2 in a humidified incubator with compounds and control antagonist titration for 30 minutes. 4 μL of 10× control agonist R1881 at the pre-determined EC80 concentration was added to wells containing the control antagonist or compounds. The plate was incubated for 16-24 hours at 37° C./5% CO2 in a humidified incubator. 8 μL of 1 μM Substrate Loading Solution is added to each well and the plate was incubated for 2 hours at room temperature. The plate was read on a fluorescence plate reader (Tecan Safire^2).

For another assay, the target named is Human androgen receptors (Homo sapiens (Human), UniProt P10275, T878A). Description: Androgen receptor (AR) radioligand binding assay. As for the experimental part:
Methods employed in this study have been adapted from the following literature procedure.
Human androgen receptors obtained from human LNCaP cells are used in modified HEPES buffer pH 7.4. […] Non-specific binding is estimated in the presence of 1 μM testosterone. […] (See, e.g., Traish, A. M et al., Binding of 7α, 17α-dimethyl-19-nortestosterone (Mibolerone) to androgen and progesterone receptors in human and animal tissues. Endocrinology. 118(4): 1327-1333, 1986).
Compounds are screened at 10 μM.
Where presented, IC50 values were determined by a non-linear, least squares regression analysis using MathIQ™ (ID Business Solutions Ltd., UK).

[1] abbreviates: receptors from human LNCaP cells, 0.5 nM [3H]Methyltrienolone, 20 hours at 4° C., read-out: AR IC50.

Sequence of androgen receptor (AR) (P10275 other isoform, or with tags, fused parts or gaps): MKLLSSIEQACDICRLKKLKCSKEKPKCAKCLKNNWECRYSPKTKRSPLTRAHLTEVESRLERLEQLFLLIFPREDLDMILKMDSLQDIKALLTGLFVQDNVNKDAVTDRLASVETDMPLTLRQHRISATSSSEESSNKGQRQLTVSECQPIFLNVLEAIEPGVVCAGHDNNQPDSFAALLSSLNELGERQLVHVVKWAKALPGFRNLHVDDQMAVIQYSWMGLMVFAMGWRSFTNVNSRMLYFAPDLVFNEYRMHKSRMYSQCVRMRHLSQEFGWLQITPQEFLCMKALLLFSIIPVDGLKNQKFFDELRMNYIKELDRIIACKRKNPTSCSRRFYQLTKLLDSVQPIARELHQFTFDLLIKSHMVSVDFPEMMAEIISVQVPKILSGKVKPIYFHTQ
Sequence of Human androgen receptors (P10275 whole entry T878A): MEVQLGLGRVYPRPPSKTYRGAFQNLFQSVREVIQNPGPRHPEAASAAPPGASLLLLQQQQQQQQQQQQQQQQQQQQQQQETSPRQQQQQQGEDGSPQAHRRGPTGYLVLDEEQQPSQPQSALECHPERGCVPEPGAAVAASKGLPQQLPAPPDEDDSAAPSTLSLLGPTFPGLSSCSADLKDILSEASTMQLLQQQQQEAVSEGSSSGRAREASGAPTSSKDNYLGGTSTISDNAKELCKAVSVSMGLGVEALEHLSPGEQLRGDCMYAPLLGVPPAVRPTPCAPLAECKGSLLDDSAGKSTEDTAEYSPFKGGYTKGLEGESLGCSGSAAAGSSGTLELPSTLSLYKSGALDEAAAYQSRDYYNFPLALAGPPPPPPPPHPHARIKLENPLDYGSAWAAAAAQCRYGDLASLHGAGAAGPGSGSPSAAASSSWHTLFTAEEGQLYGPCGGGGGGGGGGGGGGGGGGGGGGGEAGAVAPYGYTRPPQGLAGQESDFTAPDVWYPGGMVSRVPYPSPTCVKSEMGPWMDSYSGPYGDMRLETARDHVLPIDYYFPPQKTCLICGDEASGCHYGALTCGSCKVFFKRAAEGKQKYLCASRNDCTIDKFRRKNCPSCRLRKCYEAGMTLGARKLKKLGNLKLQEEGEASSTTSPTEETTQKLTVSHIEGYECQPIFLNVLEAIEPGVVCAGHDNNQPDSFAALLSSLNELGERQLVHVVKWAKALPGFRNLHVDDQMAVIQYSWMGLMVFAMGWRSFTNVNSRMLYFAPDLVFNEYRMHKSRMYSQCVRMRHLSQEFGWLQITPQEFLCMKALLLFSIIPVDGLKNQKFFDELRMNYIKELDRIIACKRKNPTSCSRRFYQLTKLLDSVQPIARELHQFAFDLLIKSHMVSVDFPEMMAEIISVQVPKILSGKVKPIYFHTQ

With `CCCc1nc(C)c2c(=O)[nH]c(-c3cc(N4C(=S)N(c5ccc(C#N)c(C(F)(F)F)c5)C(=O)C45CCC5)ccc3OCC)nn12` [Compound 22, 4-(5-(4-ethoxy-3-(5-methyl-4-oxo-7-propyl-3,4-dihydroimidazo[5,1-f][1,2,4]triazin-2-yl)phenyl)-8-oxo-6-thioxo-5,7-diazaspiro[3.4]octan-7-yl)-2-(trifluoromethyl)benzonitrile], the IC50 was not above 10 nM against human PDE-5A1, not above 500 nM at androgen receptor (AR) and 50 to 200 nM at Human androgen receptors.

Consider `CCCc1nc(C)c2c(=O)[nH]c(-c3cc(N4C(=S)N(c5ccc(C#N)c(C(F)(F)F)c5F)C(=O)C45CCCC5)ccc3OCC)nn12` [Compound 50, 4-(1-(4-ethoxy-3-(5-methyl-4-oxo-7-propyl-3,4-dihydroimidazo[5,1-f][1,2,4]triazin-2-yl)phenyl)-4-oxo-2-thioxo-1,3-diazaspiro[4.4]nonan-3-yl)-3-fluoro-2-(trifluoromethyl)benzonitrile], for which the IC50 against human PDE-5A1 was not above 10 nM; against androgen receptor (AR), not above 500 nM; on Human androgen receptors (setting [1]), less than 50 nM.

For `CCCc1nc(C)c2c(=O)[nH]c(-c3cc(N4C(=S)N(c5ccc(C#N)c(C(F)(F)F)c5)C(=O)C4(C)C)ccc3OCC)nn12` [Compound 18, 4-(3-(4-ethoxy-3-(5-methyl-4-oxo-7-propyl-3,4-dihydroimidazo[5,1-f][1,2,4]triazin-2-yl)phenyl)-4,4-dimethyl-5-oxo-2-thioxoimidazolidin-1-yl)-2-(trifluoromethyl)benzonitrile], the IC50 against human PDE-5A1 is not above 10 nM; against androgen receptor (AR), not above 500 nM; at Human androgen receptors (setting [1]), less than 50 nM.

Consider `CCCc1nc(C)c2c(=O)[nH]c(-c3cc(N4C(=S)N(c5ccc(C#N)c(C(F)(F)F)c5)C(=O)C45CCCC5)ccc3OCC)nn12` [Compound 38, 4-(1-(4-ethoxy-3-(5-methyl-4-oxo-7-propyl-3,4-dihydroimidazo[5,1-f][1,2,4]triazin-2-yl)phenyl)-4-oxo-2-thioxo-1,3-diazaspiro[4.4]nonan-3-yl)-2-(trifluoromethyl)benzonitrile], for which the IC50 at human PDE-5A1 was not above 10 nM; against androgen receptor (AR) it was not above 500 nM; on Human androgen receptors (setting [1]), less than 50 nM.

Turning to `CCCc1nn(C)c2c(=O)[nH]c(-c3cc(N4C(=S)N(c5cnc(C#N)c(C(F)(F)F)c5)C(=O)C4(C)C)ccc3OCC)nc12` [Compound 19, 5-(3-(4-ethoxy-3-(1-methyl-7-oxo-3-propyl-6,7-dihydro-1H-pyrazolo[4,3-d]pyrimidin-5-yl)phenyl)-4,4-dimethyl-5-oxo-2-thioxoimidazolidin-1-yl)-3-(trifluoromethyl)picolinonitrile], the IC50 against human PDE-5A1 is more than 100 nM; at androgen receptor (AR) it was 500 to 1000 nM; on Human androgen receptors (setting [1]), more than 200 nM.

As for `CCCc1nc(C)c2c(=O)[nH]c(-c3cc(N4C(=S)N(c5ccc(C#N)c(C(F)(F)F)c5F)C(=O)C4(C)C)ccc3OCC)nn12` [Compound 47, 4-(3-(4-ethoxy-3-(5-methyl-4-oxo-7-propyl-3,4-dihydroimidazo[5,1-f][1,2,4]triazin-2-yl)phenyl)-4,4-dimethyl-5-oxo-2-thioxoimidazolidin-1-yl)-3-fluoro-2-(trifluoromethyl)benzonitrile], the IC50 on human PDE-5A1 was not above 10 nM; against androgen receptor (AR), not above 500 nM; on Human androgen receptors (setting [1]) it was less than 50 nM.

With `CCCc1nc(C)c2c(=O)[nH]c(-c3cc(S(=O)(=O)NC4CCN(c5ccc(C#N)c(C(F)(F)F)c5)CC4)ccc3OCC)nn12` [Compound 30, N-(1-(4-cyano-3-(trifluoromethyl)phenyl)piperidin-4-yl)-4-ethoxy-3-(5-methyl-4-oxo-7-propyl-3,4-dihydroimidazo[5,1-f][1,2,4]triazin-2-yl)benzenesulfonamide], the figures for the IC50 on human PDE-5A1, at androgen receptor (AR) and on Human androgen receptors (setting [1]) were not above 10 nM, not above 500 nM and less than 50 nM, respectively.

What is called IC50 is the concentration needed to halve the response being measured.
